Test results from the OPERA property sets (Mansouri et al. 2018).
Peptide text beside a SMILES is read from it.

SMILES | logP
CCCC(NC(C)=O)C(N)=O (stereo not given) | -0.45
CN(C)C(N(C)C)=S(I)c1cc(Cl)c(Cl)cc1Cl (stereo not given) | 0.68
CCOC(=O)c1c[nH]cc1C | 2.14
CCCNc1nc(NCC)nc(SC(F)F)n1 | 3.8
CCCC(=NOCC)C1C(=O)CC(C)(C)OC1=O (stereo not given) | 2.56
Oc1cccc2c(O)cccc12 | 1.94
COc1cccc(OC)c1C(=O)N[C@@H]1C(=O)N2[C@@H]1SC(C)(C)[C@@H]2C(=O)O | 1.22
CCCCC(=O)c1ccc[nH]1 | 2.42
CCCCC#N | 1.12
O=C(O)c1cccs1 | 1.57
CCCCOCCCC | 3.21
Cc1cccc2sc3nncn3c12 | 1.7
CON=C(C(=O)NC1C(=O)N2C(C(=O)OCOC(=O)C(C)(C)C)=C(CSc3nnnn3C)CSC12)c1csc(N)n1 (stereo not given) | 1.74
CNC(=O)ON=CC(C)(C)SC | 1.13
O=C(O)Cc1ccc(Cl)cc1 | 2.12
CCC1(C(C)CC(C)O)C(=O)NC(=O)NC1=O (stereo not given) | 0.35
Oc1ccc(Br)cc1Br | 3.22
NCCc1ccccn1 | 0.08
CCOc1cccc(NC(C)=O)c1 | 1.82
O=C(O)CCCCCCc1ccccc1 | 3.63
O=[N+]([O-])C=Cc1ccco1 | 1.56
CNC(=O)c1ccoc1 | 0.34
CCOP(=S)(OCC)Oc1ccc(SC)cc1C | 4.16
COc1ccc(S(N)(=O)=O)cc1C(=O)NCC1CCCN1Cc1ccc(F)cc1 (stereo not given) | 2.46

SMILES | logP
CCC1(CC(C)C(C)C)C(=O)NC(=O)NC1=O (stereo not given) | 2.02
Cc1cccc(Cl)c1NC1=NCCN1 | 1.71
CN(C)Cc1cccnc1 | 0.49
COC(=O)c1ccccc1OC(C)=O | 1.46
Clc1cc(-c2ccccc2)c(Cl)c(Cl)c1Cl | 6.41
O=C(NC(CO)C(O)c1ccc(-c2ccccc2)cc1)C(Cl)Cl (stereo not given) | 2.86
CCOC(=O)C(=Cc1ccccc1C)C(=O)OCC | 3.22
OCc1ccccn1 | 0.06
COc1ccc(-c2cc3cnccc3[nH]2)c(OC)c1 | 3.5
O=Cc1c[nH]c2ccccc12 | 1.68
NNC(=O)c1ccccc1Br | 0.26
O=Cc1ccc[nH]1 | 0.64
Cc1ccc(N=C=S)cc1 | 3.92
c1ccc2nc3ccccc3nc2c1 | 2.84
CC(=O)Oc1ccccc1C(F)(F)F | 2.59
O=[N+]([O-])c1ccc(C=NO)o1 | 0.3
O=C1CCC(=O)N1c1ccc(Br)cc1 | 1.18
C=C(Br)CC1(C(C)CCC)C(=O)NC(=O)NC1=O (stereo not given) | 2.09
CC1(C)NC(=O)NC1=O | -0.48
C=CC(=O)OCC(C)C | 2.22
CN(C)CCN1c2ccccc2Sc2ccccc21 | 4.2
Nc1cccc([N+](=O)[O-])c1N | 1.27
NC(=O)Nc1ccc(Oc2ccccc2)cc1 | 2.8
C(#Cc1ccccc1)c1ccccc1 | 4.78

SMILES | logP
COc1cc(Cl)c(Nc2ccccc2CC(=O)O)c(Cl)c1 | 4.44
O=[N+]([O-])c1ccccc1F | 1.69
NC(=O)c1ccccc1NC(=O)C(Cl)Cl | 1.68
COc1cccnc1 | 0.99
C[C@]12CC[C@H](O)C[C@H]1CC[C@@H]1[C@@H]2CC[C@]2(C)[C@@H](C3=CC(=O)OC3)CC[C@]12O | 2.64
NC(=O)NNC(=O)c1ccccc1 | -0.5
CCCNCCC | 1.67
CCOC(=O)CNC(=O)C=[N+]=[N-] | -0.08
CC(C)(C)[N+](=O)[O-] | 1.17
O=C(O)Cc1ccc(I)cc1 | 2.64
C[C@@H]1C[C@@H]([C@H](O)CC2CC(=O)NC(=O)C2)C(=O)[C@@H](C)C1 | 0.55
c1ccc(-n2cccc2)cc1 | 3.08
c1ccc(Nc2ccccc2)cc1 | 3.5
NC(=O)CCCc1ccccc1 | 1.41
FC(F)(F)c1ccccc1Cl | 3.53
CCCNCc1cccnc1 | 0.9
CNC(=O)NC | -0.49
CC(C)(O)C(C(=O)O)c1ccc(-c2ccccc2)cc1 (stereo not given) | 3.25
O=C1CCC(=O)N1c1cccc(I)c1 | 1.39
Clc1cc(Cl)c(Cl)c(Cl)c1Cl | 5.17
CC(C)(C)NC(=O)NO | 0.5
CNC(=O)Oc1ccccc1C(C)C | 2.31
CC(=O)Nc1ncccn1 | -0.75
CN(C(=S)c1ccccc1)c1ccccc1 | 3.12

SMILES | logP
CCOC(=O)c1ccccc1N | 2.57
O=S(=O)(CF)Nc1ccc(Cl)cc1 | 2.25
CC(C)Oc1ccc(CC#N)cc1 | 2.53
FC(F)(Cl)Cl | 2.16
CCCOc1cc(N)ccc1C(=O)O | 1.53
COc1cc(S(C)=O)ccc1-c1nc2ncncc2[nH]1 (stereo not given) | 0.53
CC1CCCC1 | 3.37
CCCCCCn1cc(C)c(=O)[nH]c1=O | 1.93
FC(F)(Cl)C(F)(F)Cl | 2.82
FC(F)(F)C(F)(F)F | 2
CCCCCCC(C)(C)c1ccc(C2CC(O)CCC2CCCCO)c(O)c1 (stereo not given) | 6.68
NC(=O)c1cnc2ccccc2n1 | 0.98
CCNC(=O)c1ccco1 | 0.61
c1cnc2nccnc2c1 | -0.04
C[C@H](N[C@H](CCc1ccccc1)C(=O)O)C(=O)N1CCC[C@H]1C(=O)O | -0.74
CC1OC(=O)c2ccccc21 (stereo not given) | 1.41
CCCCCC(C)O (stereo not given) | 2.31
CCC(O)CC | 1.21
CC(=O)C(C)C | 0.84
CC(C)(CCC(=O)O)C(=O)O | 0.67
CCCS(=O)(=O)CCn1c([N+](=O)[O-])cnc1C | 0.23
O=C(CCCN1CCC(n2c(=O)[nH]c3ccccc32)CC1)c1ccc(F)cc1 | 3.91
O=C(O)Cc1ccc(OCCc2ccccc2)c(Cl)c1 | 3.53
CNC(=O)c1ccccc1 | 0.86

SMILES | logP
CC(=O)[C@H]1CC[C@H]2[C@@H]3CC=C4C[C@@H](O)CC[C@]4(C)[C@H]3CC[C@]12C | 4.22
O=C(CCl)Nc1ccccc1 | 1.63
C=CCC1(CC)C(=O)NC(=O)N(C)C1=O (stereo not given) | 1.35
CCOP(=S)(OCC)Oc1ccc([N+](=O)[O-])cc1 | 3.83
CC(C)(C)C(=O)OCC1CCC(n2cnc3c(=O)[nH]cnc32)O1 (stereo not given) | 0.6
CCC1C(=O)NC(=O)NC1=O | -0.35
CC(=O)c1ccc2ncccc2c1 | 1.58
CC(=O)N[C@@H](Cc1ccccc1)C(=O)N[C@H](C(N)=O)C(C)C (Ac-Phe-Val-NH2) | 0.43
Cc1cccc2ccccc12 | 3.87
CC(=O)Oc1ccccc1Br | 2.2
NS(=O)(=O)c1ccc(S(=O)(=O)CCO)s1 | -0.54
CC1CO1 (stereo not given) | 0.03
CC(C)(C)c1cccc(C(C)(C)C)n1 | 4.14
CC(C)OC(=O)C(C(=O)OC(C)C)=C1SCCS1=O (stereo not given) | 1.6
CCCCOc1ccc([N+](=O)[O-])cc1 | 3.5
c1cncc(CCN2CCCC2)c1 | 1.34
NC1=C(Cl)C(=O)c2ccccc2C1=O | 2.12
Cc1cc2c(cc1S(N)(=O)=O)S(=O)(=O)NCN2 | -0.22
c1ccc2c(c1)cnc1ccccc12 | 3.48
Clc1ccc2cc[nH]c2c1 | 3.25
Cc1ccccc1C(O)c1ccccc1 (stereo not given) | 3.06
Cn1c(N)nc2cc(Cl)c(Cl)cc21 | 2.98
BrC1CCCCC1 | 3.2
C[C@]12CCC(=O)C=C1CC[C@@H]1[C@@H]2C(=O)C[C@@]2(C)[C@H]1CC[C@]2(O)C(=O)CO | 1.47

SMILES | logP
Cc1noc(NS(=O)(=O)c2ccc(N)cc2)c1C | 1.01
CCOC(=O)c1cc2ccc(CC)cc2nn1 | 2.31
CN(c1ccccc1)c1ccccc1 | 3.9
C1OC1C1CO1 (stereo not given) | -0.52
O=NN1CCC(Br)C(Br)C1 (stereo not given) | 1.23
O=C1NC(=S)NC(=O)C1C(=O)Nc1ccccc1 | 0.14
CC(=O)Oc1ccc(C)cc1 | 2.11
C1COCCOCCOCCOCCO1 | -0.48
CCCCC(=O)OCC(=O)C1(O)CCC2C3CCC4=CC(=O)CCC4(C)C3C(O)CC21C (stereo not given) | 3.62
CCc1ccc2ccccc2c1 | 4.38
COC=O | 0.03
NC(CC(=O)O)c1ccccc1 (stereo not given) | -1.4
COC1C(O)CC(OC2C(O)CC(OC3C(O)CC(OC4CCC5(C)C(CCC6C5CC(OC(C)=O)C5(C)C(C7=CC(=O)OC7)CCC65O)C4)OC3C)OC2C)OC1C (stereo not given) | 2.87
CCC(Oc1ccccc1)C(=O)N[C@@H]1C(=O)N2[C@@H]1SC(C)(C)[C@@H]2C(=O)O (stereo not given in full) | 2.65
S=C1CCCCCCN1 | 1
Cc1cccc(C)c1NC(=O)C1CNCCN1 (stereo not given) | 0.38
COc1cccc(C(=O)O)c1 | 2.02
O=NN1CCNCC1 | 0.18
COc1ccc2c(c1)nc(N)n2C | 0.87
NC(=O)N(CCCl)N=O | 0.57
O=C(O)Cc1ccc([N+](=O)[O-])cc1 | 1.39
O=[N+]([O-])c1ccc(Cl)c(Cl)c1 | 3.12
CCOP(=O)(OCC)Oc1cc(C)nc(C(C)C)n1 | 2.07
O=CNc1ccc([N+](=O)[O-])cc1 | 1.43

SMILES | logP
O=S(=O)(CF)Nc1ccccc1 | 1.35
c1ccc2c(c1)sc1ccccc12 | 4.38
CN(C)c1nc2c3cccnc3ccc2n1C | 2.28
Cc1c(O)c(=O)ccn1CCN | -1.55
O=S(=O)(c1ccccc1)c1cccc2cccnc12 | 2.33
CN(C)c1ccc(Cl)nn1 | 0.98
CNC(=O)Oc1ccccc1C#N | 0.86
Cc1cccc(N)c1 | 1.4
CSc1cccc(NC(N)=O)c1 | 1.57
Cc1nn(C)c(OCC(=O)c2ccccc2)c1C(=O)c1ccc(Cl)cc1Cl | 3.69
CN(C)c1ccc(C(=O)c2ccc(N(C)C)cc2)cc1 | 3.87
O=C(O)c1cc(Cl)ccc1[N+](=O)[O-] | 2.13
COc1cccnc1CCCCNc1ncc(Cc2ccc(C)nc2)c(=O)[nH]1 | 2.58
NS(=O)(=O)c1cccc2cccnc12 | 0.42
O=C(O)c1ccccn1 | 0.72
CCOC(=O)c1ccc(N)cc1 | 1.86
N[C@@H](CCC(=O)O)C(=O)O | -3.69
Cc1ccc(OCC(=O)NNC(C)C)cc1 | 1.81
CCOC(=O)C(=Cc1ccc([N+](=O)[O-])cc1)C(=O)OCC | 3.03
CON(C)C(=O)Nc1ccc(N)cc1 | -0.16
Nc1ccc2c(n1)[nH]c1ccccc12 | 2.6
